What is called logP is the decadic logarithm of the partition coefficient of the neutral form, usually between octanol and water. Low values mean lower lipophilicity, high ones higher lipophilicity.

The record followed here is the SangsterLogP compilation.

The series can be described thus: method code SF-TN, from DOI: 10.1007/bf00773207.
`COc1ccccc1Nc1cc(Cl)ccc1C(=O)O` registered a logP of 4.32. The compound `O=C(O)c1ccc(Cl)cc1Nc1ccccc1` displayed a logP of 4.25. With `O=C(O)c1ccccc1Nc1ccc(Cl)cc1` the figure was 4.24; with `O=C(O)c1ccc(Cl)cc1Nc1ccc([N+](=O)[O-])cc1`, 4.04. `O=C(O)c1ccc(Cl)cc1Nc1ccc(Cl)cc1` returned a logP of 4.97.

`Cc1ccccc1Nc1ccccc1C(=O)O` showed a logP of 4.01. Under `COc1ccc(Nc2ccccc2C(=O)O)cc1` stands 3.68; under `O=C(O)c1ccc(Cl)cc1Nc1cccc(Cl)c1`, 5; under `O=C(O)c1ccccc1Nc1ccccc1`, 3.52. Under `Cc1cc(C)cc(Nc2cc(Cl)ccc2C(=O)O)c1` stands 5.48; under `O=C(O)c1ccc(Cl)cc1Nc1cccc(Br)c1`, 5.16; under `Cc1ccc(Nc2cc(Cl)ccc2C(=O)O)cc1`, 4.81. With `Cc1ccc(Nc2cc(Cl)ccc2C(=O)O)cc1C` the figure was 5.43; with `Cc1ccc(Nc2ccccc2C(=O)O)cc1`, 4.09. In turn, `O=C(O)c1ccc(Cl)cc1Nc1ccccc1Cl` displayed a logP of 4.67.

With `O=C(O)c1ccccc1Nc1ccccc1Cl`, the logP is 3.94. Under `O=C(O)c1ccc(Cl)cc1Nc1cccc([N+](=O)[O-])c1` stands 4.05; under `O=C(O)c1ccc(Cl)cc1Nc1ccc(I)cc1`, 5.37.

With `COc1ccccc1Nc1ccccc1C(=O)O`, the logP came out at 3.6. With `COc1ccc(Nc2cc(Cl)ccc2C(=O)O)cc1` the figure was 4.41. With `Cc1ccccc1Nc1cc(Cl)ccc1C(=O)O` the figure was 4.73.
